Data set [1] has as its system Salmonella typhi. In words: microbe, parasite or virus in culture. The format is cell-based, Salmonella typhi (ATCC-14028). As to conditions: for zone of inhibition at 400 µg/disc: Salmonella enterica.
Data set [2] concerns Shigella boydii. In words: microbe, parasite or virus in culture. Type of data set: cell-based, Shigella boydii (AL-17313).
The nature of data set [3]: Brine shrimp lethality bioassay (cytotoxicity). As to conditions: Artemia salina (brine shrimp nauplii), in vivo.
Data set [4] deals with Bacillus megaterium. In words: microbe, parasite or virus in culture. The format is cell-based, Bacillus megaterium (QL-38). To be noted: for zone of inhibition at 400 µg/disc: Priestia megaterium.
A short description of data set [5]: Reducing power assay (antioxidant, Fe3+ to Fe2+). As to conditions: at a concentration of 40 µg/mL, absorbance at 700 nm.
The target in data set [6] is T1, BChE enzyme from human blood (Homo sapiens, UniProt P06276).
T1 construct: BChE enzyme from human blood of a volunteer; from tissue; host or cells: human blood of a volunteer
The data set is described as follows: Anti-BChE assay, Ellman method. The format is biochemical. How it is done: (§1) We used the prepared AChE enzyme from mice brain and BChE enzyme from human blood of a volunteer that has been mentioned earlier. Various concentrations of the compound (500 μL) were mixed with the enzyme solution (500 μL) and incubated at 37 °C for 30 min. A reaction mixture was prepared that contained 0.5 mM acetylthiocholine/butyrylthiocholine and 1 mM DTNB in 50 mM sodium phosphate buffer (pH 8.0). To the reaction mixture (3.5 mL), the enzyme solution containing compound was added, incubated, and immediately the absorbance of the solution was determined at 412 nm. […] The percent inhibition was calculated by dividing the difference of sample absorbance from control with control absorbance × 100.
In general terms: In Ellman's method for cholinesterases, released thiocholine reacts with DTNB.

The subject of data set [7] is Klebsiella species. In words: microbe, parasite or virus in culture. Type of data set: cell-based.
Data set [8] concerns Shigella sonnei. The data set is described as follows: microbe, parasite or virus in culture. The format is cell-based, Shigella sonnei (AJ-8992).
Data set [9] has as its system Shigella shiga. In words: microbe, parasite or virus in culture. Type of data set: cell-based, Shigella shiga (ATCC-26107). As to conditions: for zone of inhibition at 400 µg/disc: Shigella.
In data set [10] the test system is Shigella dysenteriae. In words: microbe, parasite or virus in culture. The format is cell-based, Shigella dysenteriae (AL-35587).
The test system of data set [11] is Escherichia coli. The data set is described as follows: microbe, parasite or virus in culture. The format is cell-based, Escherichia coli (FPFC-1407).
In data set [12] the test system is Bacillus Subtilis. The data set is described as follows: microbe, parasite or virus in culture. Type of data set: cell-based, Bacillus subtilis (QL-40).
Data set [13] concerns Staphylococcus aureus. The data set is described as follows: microbe, parasite or virus in culture. Type of data set: cell-based, Staphylococcus aureus (ATCC-259233).
Data set [14] relates to Strep-β-haemolyticus. The data set is described as follows: organism not typed. Type of data set: cell-based, Streptococcus-ß-haemolyticus (ATCC-10389).
Data set [15] has as its system Fusarium species. In words: microbe, parasite or virus in culture. The format is cell-based.
Data set [16] relates to Aspergillus flavus. In words: microbe, parasite or virus in culture. Type of data set: cell-based, Aspergillus flavus (ATCC-9807).
The subject of data set [17] is Sarcina lutea. In words: microbe, parasite or virus in culture. The format is cell-based, Sarcina lutea (QL-1660). As to conditions: for zone of inhibition at 400 µg/disc: Micrococcus luteus.
Data set [18] concerns Pseudomonas aeruginosa. The data set is described as follows: microbe, parasite or virus in culture. Type of data set: cell-based, Pseudomonas aeruginosa (ATCC-27853).
In data set [19] the test system is Shigella flexneriae. The data set is described as follows: microbe, parasite or virus in culture. The format is cell-based, Shigella flexneriae (AM-36282).
Data set [20] deals with Aspergillus niger. Type of data set: cell-based, Aspergillus niger (ATCC-1204).
Data set [21] deals with T2, AChE enzyme from mice brain (Mus musculus, UniProt P21836).
T2 construct: We used the prepared AChE enzyme from mice brain; from tissue; host or cells: mouse brain
The data set is described as follows: biochemical. How it is done:
as §1

For data set [22], the system named is Candida species. The data set is described as follows: microbe, parasite or virus in culture. The format is cell-based.
Data set [23] deals with brine shrimp nauplii (Artemia salina Lech). The data set is described as follows: Brine shrimp lethality bioassay (cytotoxicity). To be noted: brine shrimp lethality, 5–80 μg/mL.

For orientation: zone of inhibition means the size of the clear area around the sample on an inoculated plate. By LC50 is commonly meant the concentration lethal to half of the exposed cells or organisms. Higher therefore signals a less lethal substance. The term IC50 denotes the midpoint of a concentration-inhibition curve.

≈ marks a conversion by molar mass, not a printed value. Where two headings read alike, the source gives them in different places.

T1 sequence (P06276 29-602): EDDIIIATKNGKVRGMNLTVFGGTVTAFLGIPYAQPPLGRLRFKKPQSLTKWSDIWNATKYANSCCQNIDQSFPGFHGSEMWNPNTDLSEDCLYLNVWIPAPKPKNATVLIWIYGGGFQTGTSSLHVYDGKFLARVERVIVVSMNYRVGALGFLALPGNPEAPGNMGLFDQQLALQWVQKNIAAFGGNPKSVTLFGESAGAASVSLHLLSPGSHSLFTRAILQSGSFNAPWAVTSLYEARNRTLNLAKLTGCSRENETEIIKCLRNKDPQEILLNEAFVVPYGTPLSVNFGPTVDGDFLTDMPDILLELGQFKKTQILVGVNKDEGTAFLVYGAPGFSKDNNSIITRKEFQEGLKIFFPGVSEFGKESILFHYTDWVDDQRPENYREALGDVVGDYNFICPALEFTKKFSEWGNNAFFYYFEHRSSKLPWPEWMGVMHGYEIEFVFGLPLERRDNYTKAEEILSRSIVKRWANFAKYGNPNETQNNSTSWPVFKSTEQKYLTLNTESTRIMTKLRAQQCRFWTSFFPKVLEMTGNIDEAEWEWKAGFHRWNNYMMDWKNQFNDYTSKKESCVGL
T2 sequence (P21836 32-614): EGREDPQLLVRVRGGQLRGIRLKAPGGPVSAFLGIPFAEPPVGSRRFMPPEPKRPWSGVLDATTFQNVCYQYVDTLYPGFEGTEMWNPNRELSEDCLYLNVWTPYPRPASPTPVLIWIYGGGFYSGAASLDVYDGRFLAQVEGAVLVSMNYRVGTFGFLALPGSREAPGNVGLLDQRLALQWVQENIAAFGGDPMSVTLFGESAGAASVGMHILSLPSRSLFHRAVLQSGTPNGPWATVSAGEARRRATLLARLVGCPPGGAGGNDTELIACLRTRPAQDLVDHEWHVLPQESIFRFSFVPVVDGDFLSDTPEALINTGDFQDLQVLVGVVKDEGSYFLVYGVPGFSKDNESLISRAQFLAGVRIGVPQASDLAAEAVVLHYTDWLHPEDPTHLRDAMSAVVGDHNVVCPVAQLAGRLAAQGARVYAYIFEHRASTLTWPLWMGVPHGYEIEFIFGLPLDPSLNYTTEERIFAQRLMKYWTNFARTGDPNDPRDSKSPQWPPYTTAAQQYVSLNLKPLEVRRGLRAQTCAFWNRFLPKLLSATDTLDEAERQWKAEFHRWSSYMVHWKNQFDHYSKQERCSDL

In the case of `C=C1C[C@@]23CCC4[C@](C)(C(=O)O)CCC[C@@]4(C)[C@@H]2CC[C@@H]1C3` (single isomer, unassigned; (-)) [Compound 2, (-) kaur-16-en-19-oic acid], the zone of inhibition at 400 µg/disc in data set [1] (400 μg/disc) is 15 mm; in [2] (400 μg/disc), 14 mm; in data set [4] (400 μg/disc), 12 mm; in data set [7] (400 μg/disc), 17 mm; in [8] (400 μg/disc), 13 mm; in data set [9] it was 15 mm. Moreover, the zone of inhibition at 400 µg/disc in data set [10] (400 μg/disc) came to 20 mm; in [11] (400 μg/disc) it was 16 mm; in data set [12] (400 μg/disc), 14 mm; in data set [13] (400 μg/disc), 13 mm; in data set [14] (400 μg/disc), 18 mm; in data set [15] (400μg/disc), 11 mm. The zone of inhibition at 400 µg/disc in data set [16] (400μg/disc) was 17 mm; in [17] (400 μg/disc), 16 mm; in [18] (400 μg/disc), 16 mm; in data set [19] (400 μg/disc) it was 13 mm; in [22] (400μg/disc) it was 13 mm. Moreover, the LC50 at 24 h in data set [3] is 16.2 ± 1.11 mg/L (≈ 53.5 µM). Besides, in data set [5], the “absorbance (reducing power)” value was 1.26. Further, the values for the IC50 in data set [6] and in data set [21] were 111 µM and 115 µM, respectively. In data set [20] (400μg/disc), the “Zone of Inhibition” value is “−”.
In the case of `C[C@@]12CCC[C@@](C)(C(=O)O)[C@H]1CC[C@@]13C[C@@H](CC[C@H]12)[C@](C)(O)C3` [Compound 1, (-) kaur-16α-hydroxy-19-oic acid], the zone of inhibition at 400 µg/disc stood at 13 mm in [1] (400 μg/disc); 13 mm in data set [2] (400 μg/disc); 14 mm in data set [4] (400 μg/disc); 15 mm in [7] (400 μg/disc); 15 mm in data set [8] (400 μg/disc); 14 mm in data set [9]. Besides, the zone of inhibition at 400 µg/disc in data set [10] (400 μg/disc) came out at 19 mm; in [11] (400 μg/disc), 14 mm; in data set [12] (400 μg/disc), 13 mm; in data set [13] (400 μg/disc), 23 mm; in data set [14] (400 μg/disc) it was 17 mm; in data set [15] (400μg/disc), 12 mm. Also, the zone of inhibition at 400 µg/disc in [16] (400μg/disc) was determined as 14 mm; in data set [17] (400 μg/disc), 17 mm; in data set [18] (400 μg/disc), 15 mm; in data set [19] (400 μg/disc), 12 mm. The molecule further returned an LC50 at 24 h in data set [3] of 12.4 ± 0.87 mg/L (≈ 38.8 µM). In addition, in [5], the “absorbance (reducing power)” value is given as 1.55. Also, the IC50 was 145 µM in [6] (mean ± SD (n = 3), read-out: IC50, inhibition of butyrylcholinesterase (BChE) (converted)) and 152 µM in [21] (mean ± SD (n = 3), read-out: IC50, inhibition of acetylcholinesterase (AChE) (converted)). For the same molecule, the “Zone of Inhibition” value in data set [20] (400μg/disc) is “−”; in [22] (400μg/disc) it was “inactive and −”.
On to `CC[C@H](CC[C@@H](C)[C@H]1CC[C@H]2[C@@H]3CC=C4C[C@@H](O)CC[C@]4(C)[C@H]3CC[C@]12C)C(C)C` [Compound 3, β-sitosterol], for which the “Zone of Inhibition” value in data set [1] (400 μg/disc), in [2] (400 μg/disc), in data set [4] (400 μg/disc), in data set [7] (400 μg/disc), in data set [8] (400 μg/disc) and in [9] was “−” throughout. The “Zone of Inhibition” value in [10] (400 μg/disc), in [11] (400 μg/disc), in [12] (400 μg/disc), in [13] (400 μg/disc), in [14] (400 μg/disc) and in [15] (400μg/disc) was “−” throughout. Besides, the “Zone of Inhibition” value in [16] (400μg/disc), in data set [17] (400 μg/disc), in data set [18] (400 μg/disc), in [19] (400 μg/disc), in [20] (400μg/disc) and in data set [22] (400μg/disc) was “−” throughout. In addition, the “cytotoxic effects (in words)” value in [23] was “All the compounds except 3 showed significant cytotoxic effects”. Also, the IC50 in [6] was 104 µM; in data set [21], 107 µM.
Take `CC(C)C=CC[C@@H](C)[C@H]1CC[C@H]2[C@@H]3CC=C4CC(O)CC[C@]4(C)[C@H]3CC[C@]12C` (some centres unmarked) [Compound 4, cholesta-5,23-dien-3-ol]: the zone of inhibition at 400 µg/disc in data set [1] (400 μg/disc) is 10 mm; in data set [2] (400 μg/disc), 10 mm; in data set [4] (400 μg/disc) it was 12 mm; in [7] (400 μg/disc), 13 mm; in [8] (400 μg/disc), 12 mm; in data set [9], 14 mm. Further, the zone of inhibition at 400 µg/disc in [10] (400 μg/disc) was found to be 13 mm; in [11] (400 μg/disc) it was 13 mm; in data set [12] (400 μg/disc), 12 mm; in [13] (400 μg/disc), 9 mm; in data set [14] (400 μg/disc), 12 mm; in data set [17] (400 μg/disc), 13 mm. Moreover, the zone of inhibition at 400 µg/disc in [18] (400 μg/disc) stood at 12 mm; in data set [19] (400 μg/disc) it was 11 mm. This molecule also displayed an LC50 at 24 h in [3] of 14.3 ± 0.87 mg/L (≈ 37.1 µM). Further, in [5], the “absorbance (reducing power)” value is 1.89. For the same molecule, the figures for the IC50 in data set [6] and in [21] were 124 µM and 117 µM, respectively. Moreover, the “Zone of Inhibition” value in [15] (400μg/disc), in data set [16] (400μg/disc), in data set [20] (400μg/disc) and in data set [22] (400μg/disc) was “−” each time.
With `NC[C@H]1O[C@H](O[C@H]2[C@H](O)[C@@H](O[C@H]3O[C@H](CO)[C@@H](O)[C@H](N)[C@H]3O)[C@H](N)C[C@@H]2N)[C@H](O)[C@@H](O)[C@@H]1O` [Std. Kan, kanamycin, reference compound], the “Zone of Inhibition” value in data set [1] (30 μg/disc) was 28 mm; in data set [2] (30 μg/disc), 31 mm; in [4] (30 μg/disc) it was 27 mm; in [7] (30 μg/disc), 28 mm; in data set [8] (30 μg/disc), 31 mm; in data set [9] it was 31 mm. In addition, the “Zone of Inhibition” value is 32 mm in [10] (30 μg/disc); 27 mm in [11] (30 μg/disc); 24 mm in data set [12] (30 μg/disc); 33 mm in [13] (30 μg/disc); 27 mm in data set [14] (30 μg/disc); 29 mm in [17] (30 μg/disc). Also, the “Zone of Inhibition” value in data set [18] (30 μg/disc) was determined as 31 mm; in data set [19] (30 μg/disc) it was 27 mm.
In the case of `C[C@@H]1[C@H](O)[C@@H](C)/C=C/C=C/CC/C=C/C=C/C=C/C=C/C(O[C@H]2O[C@H](C)[C@@H](O)[C@H](N)[C@@H]2O)CC2O[C@](O)(CC(O)C(O)CCC(O)CC(O)CC(O)CC(=O)O[C@H]1C)CC(O)C2C(=O)O` (some centres unmarked) [Std. Nystatin, nystatin, reference compound], the “Zone of Inhibition” value in data set [15] (50 μg/disc) turned out to be 26 mm; in data set [16] (50 μg/disc) it was 30 mm; in data set [20] (50 μg/disc), 29 mm; in data set [22] (50 μg/disc) it was 28 mm.
Consider `CC[C@]1(O)C[C@H]2CN(CCc3c([nH]c4ccccc34)[C@@](C(=O)OC)(c3cc4c(cc3OC)N(C=O)[C@H]3[C@@](O)(C(=O)OC)[C@H](OC(C)=O)[C@]5(CC)C=CCN6CC[C@]43[C@@H]65)C2)C1` [Vincristine, vincristine, reference compound], for which the LC50 at 24 h in [3] stood at 3.48 ± 0.36 mg/L (≈ 4.22 µM).
Regarding `O.Oc1cc(O)c2c(c1)O[C@H](c1ccc(O)c(O)c1)[C@@H](O)C2` [catechin, reference compound], the “absorbance (reducing power)” value in data set [5] stood at 2.14.
